Test results from ChEMBL document CHEMBL2311443, “Exploring amino acids derivatives as potent, selective, and direct agonists of sphingosine-1-phosphate receptor subtype-1” (Bioorg Med Chem Lett, 2013).

Columns and labels:
[1] = biological target: T1, Sphingosine 1-phosphate receptor 3 (Homo sapiens, UniProt Q99500); assay: Displacement of [33P]S1P from human S1P3 receptor expressed in HEK293T cells after 1 hr by liquid scintillation counting analysis; format: cell-based, HEK-293T
Mus musculus [2] = assay: Immunomodulatory activity in C57Bl/6 mouse assessed as induction of lymphopenia at 10 mg/kg, po measured after 6 hrs; format: functional
[3] = biological target: T2, Sphingosine 1-phosphate receptor 1 (Homo sapiens, UniProt P21453); assay: Displacement of [33P]S1P from human S1P1 receptor expressed in HEK293T cells after 1 hr by liquid scintillation counting analysis; format: cell-based, HEK-293T
[4] = biological target: T1, Sphingosine 1-phosphate receptor 3; assay: Agonist activity at human S1P3 receptor expressed in HEK293T cells assessed as stimulation of [35S]GTPgammaS binding; format: functional, cell-based, HEK-293T
Homo sapiens [5] = organism: Homo sapiens; assay: Selectivity index, ratio of EC50 for human S1P3 to EC50 for human S1P1
Homo sapiens [6] = organism: Homo sapiens; assay: Selectivity index, ratio of IC50 for human S1P3 to IC50 for human S1P1
[7] = biological target: T2, Sphingosine 1-phosphate receptor 1; assay: Agonist activity at human S1P1 receptor expressed in HEK293T cells assessed as stimulation of [35S]GTPgammaS binding; format: functional, cell-based, HEK-293T
Mus musculus [8] = assay: Immunomodulatory activity in C57Bl/6 mouse assessed as induction of lymphopenia at 20 mg/kg, iv measured after 6 hrs; format: functional
Mus musculus [9] = assay: Immunomodulatory activity in C57Bl/6 mouse assessed as induction of lymphopenia at 1 mg/kg, po measured after 6 hrs; format: functional

T2 sequence (P21453 whole entry): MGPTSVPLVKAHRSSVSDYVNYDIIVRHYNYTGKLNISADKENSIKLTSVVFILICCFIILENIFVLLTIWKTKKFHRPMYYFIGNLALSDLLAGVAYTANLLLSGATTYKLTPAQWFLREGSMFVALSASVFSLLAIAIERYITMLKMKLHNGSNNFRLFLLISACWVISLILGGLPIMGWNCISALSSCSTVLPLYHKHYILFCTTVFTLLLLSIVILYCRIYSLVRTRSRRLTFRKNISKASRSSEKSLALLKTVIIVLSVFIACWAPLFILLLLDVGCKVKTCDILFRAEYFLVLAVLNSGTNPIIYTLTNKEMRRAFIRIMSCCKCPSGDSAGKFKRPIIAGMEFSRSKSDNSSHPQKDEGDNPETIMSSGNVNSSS
T1 sequence (Q99500 whole entry): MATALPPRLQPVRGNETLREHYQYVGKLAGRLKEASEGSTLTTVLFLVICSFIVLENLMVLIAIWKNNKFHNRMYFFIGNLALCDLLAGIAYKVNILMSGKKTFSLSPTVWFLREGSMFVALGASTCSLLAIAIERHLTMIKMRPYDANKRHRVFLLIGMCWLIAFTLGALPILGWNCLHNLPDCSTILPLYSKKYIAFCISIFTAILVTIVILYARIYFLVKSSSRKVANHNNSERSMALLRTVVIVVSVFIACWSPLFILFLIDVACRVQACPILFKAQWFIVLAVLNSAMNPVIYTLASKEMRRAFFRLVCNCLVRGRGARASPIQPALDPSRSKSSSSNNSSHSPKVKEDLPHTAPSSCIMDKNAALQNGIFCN

| SMILES | IC50 [1] | IC50 [3] | EC50 [4] | Ratio EC50 (Homo sapiens [5]) | Ratio IC50 (Homo sapiens [6]) | EC50 [7] | Activity (Mus musculus [2]) | Activity (Mus musculus [8]) | Activity (Mus musculus [9]) |
| --- | --- | --- | --- | --- | --- | --- | --- | --- | --- |
| O=C(O)CCc1nc(-c2ccc(OCc3ccc(-c4ccccc4)cc3)c(C(F)(F)F)c2)c[nH]1 | > 10000 nM | 3000 nM |  |  |  |  |  |  |  |
| CCCCCCCCOc1ccc(NC(=O)[C@@H](N)CC(=O)O)cc1 | 1050 nM | 14.4 nM | 1800 nM | 11 | 73 | 164 nM | 57% |  |  |
| CCCCCCCCc1ccc(CCC(N)(CO)CO)cc1 [FINGOLIMOD] |  |  |  |  |  |  |  |  | 80% |
| N[C@@H](CC(=O)O)c1nc(-c2ccc(OCc3ccc(-c4ccccc4)cc3)c(C(F)(F)F)c2)c[nH]1 | > 10000 nM | 17 nM | > 3000 nM | > 18.6 |  | 161 nM |  |  |  |
| CCCCCCCCOc1ccc(NC(=O)[C@@H](N)CCC(=O)O)cc1 | 10000 nM | 92 nM |  |  |  |  | 44% |  |  |
| C[C@](N)(CC(=O)O)c1nc(-c2ccc(OCc3ccc(-c4ccccc4)cc3)c(C(F)(F)F)c2)c[nH]1 | > 10000 nM | 82 nM | > 3000 nM | > 4 |  | 700 nM |  |  |  |

More lines, main results first:

| IC50 [1] | IC50 [3] | EC50 [4] | Ratio EC50 (Homo sapiens [5]) | Ratio IC50 (Homo sapiens [6]) | EC50 [7] | SMILES | Activity (Mus musculus [2]) | Activity (Mus musculus [8]) | Activity (Mus musculus [9]) |
| --- | --- | --- | --- | --- | --- | --- | --- | --- | --- |
| 10000 nM | 74 nM |  |  |  |  | CCCCCCCCOc1ccc(NC(=O)[C@@](C)(N)/C=C/C(=O)O)cc1 | 25% |  |  |
| > 10000 nM | 53 nM | > 3000 nM | > 13 |  | 231 nM | CCCCCCCCOc1ccc(NC(=O)[C@@H](N)CC(=O)O)cc1C(F)(F)F | 33% | 60% |  |
| > 10000 nM | 370 nM |  |  |  |  | CCCCCCCCc1ccc(NC(=O)[C@@](C)(N)CC(=O)O)cc1C(F)(F)F |  |  |  |
| > 10000 nM | 95 nM | > 3000 nM | > 22 |  | 135 nM | CCCCCCCCOc1ccc(NC(=O)[C@@](C)(N)CC(=O)O)cc1C(F)(F)F | 24% |  |  |
| 10000 nM | 77 nM |  |  |  |  | CCCCCCCCOc1ccc(NC(=O)[C@@](C)(N)CCC(=O)O)cc1 |  |  |  |
